Assay: Antioxidant activity using the free radical source DPPH (absorbance at 517 nm)
Type: biochemical
Conditions: for Antioxidant activity RC50: DPPH 0.4 mM, room temperature, 30 minutes, absorbance 517 nm, concentration giving 50% of control absorbance
Method: The antioxidant activity of the Rosa multiflora extract of the present invention obtained according to the above method was measured according to the method for measuring antioxidant activity (The Korean Society of Food and Nutrition, Handbook for Experiments in Food and Nutrition, 651p, 2000; Blois, M. S., Nature, 4617:1198, 1958).
In addition, active fractions showing antioxidant activity can be obtained by fractionating and purifying the obtained Rosa multiflora extracts by chromatography. It is preferable to carry out silica gel column chromatography once or twice. Where active fractions obtained by silica gel column chromatography are further subjected to ODS column chromatography, more highly purified active fractions can be obtained. A mixture of chloroform and methanol or a mixture of methanol and distilled water can be used as a developing solvent at the time of chromatography. A flow rate of the developing solvent is generally from 5 Ml/hr to 1000 Ml/hr and preferably from 20 Ml/hr to 500 Ml/hr. The fractions eluted by chromatography are collected in flasks in the amount of 5 Ml to 100 Ml respectively. Active fractions showing antioxidant activity can be obtained by measuring antioxidant activities of the collected fractions. Antioxidant activity can be measured by a known method (The Korean Society of Food and Nutrition, Handbook for Experiments in Food and Nutrition, 651p, 2000; Blois, M. S., Nature, 4617:1198, 1958).
Antioxidant activity was measured according to the method for measuring antioxidant activity using a free radical source, 1,1-diphenyl-2-picrylhydrazyl (DPPH) (The Korean Society of Food and Nutrition, Handbook for Experiments in Food and Nutrition, 651p, 2000; Blois, M. S., Nature, 4617: 1198, 1958). […] 0.8 Ml of DPPH (0.4 mM) solution and 3 Ml of ethanol were added, the reaction was carried out at the room temperature for 30 minutes and absorbance was measured at 517 nm. Antioxidant activity was expressed as a RC50 value. The RC50 represents the concentration of antioxidant (μg/Ml) required to achieve an absorbance equal to 50% of the absorbance of a control in which no antioxidants are contained.

| Structure (SMILES) | Antioxidant activity RC50 | Antioxidant activity relative to α-tocopherol (times stronger) (compared with the natural antioxidant α-tocopherol, DPPH RC50) | Antioxidant activity relative to BHA (times stronger) (compared with the synthetic antioxidant BHA, DPPH RC50) |
| --- | --- | --- | --- |
| Oc1cc(O)c2c(c1)O[C@H](c1ccc(O)c(O)c1)[C@@H](O)[C@@H]2c1c(O)cc(O)c2c1O[C@H](c1ccc(O)c(O)c1)[C@@H](O)C2 [Procyanidin B3, catechin-(4α→8)-catechin] | 3.4 µg/mL | 3.8 times | 2.7 times |
| Cc1c(C)c2c(c(C)c1O)CC[C@@](C)(CCC[C@H](C)CCC[C@H](C)CCCC(C)C)O2 [α-tocopherol, reference compound] | 13.0 µg/mL |  |  |
| COc1ccc(O)c(C(C)(C)C)c1 [BHA, butylated hydroxy anisole, reference compound] | 9.2 µg/mL |  |  |

From patent US6858235B2, “Antioxidant composition and method of preparation thereof” (Eromlife Co. Ltd., priority 2002, dated 2005)
